SMILES strings stand for the structures.

In the experiment the target is T1, PARP7 (Homo sapiens, UniProt Q7Z3E1).
T1 sequence (Q7Z3E1 1-657): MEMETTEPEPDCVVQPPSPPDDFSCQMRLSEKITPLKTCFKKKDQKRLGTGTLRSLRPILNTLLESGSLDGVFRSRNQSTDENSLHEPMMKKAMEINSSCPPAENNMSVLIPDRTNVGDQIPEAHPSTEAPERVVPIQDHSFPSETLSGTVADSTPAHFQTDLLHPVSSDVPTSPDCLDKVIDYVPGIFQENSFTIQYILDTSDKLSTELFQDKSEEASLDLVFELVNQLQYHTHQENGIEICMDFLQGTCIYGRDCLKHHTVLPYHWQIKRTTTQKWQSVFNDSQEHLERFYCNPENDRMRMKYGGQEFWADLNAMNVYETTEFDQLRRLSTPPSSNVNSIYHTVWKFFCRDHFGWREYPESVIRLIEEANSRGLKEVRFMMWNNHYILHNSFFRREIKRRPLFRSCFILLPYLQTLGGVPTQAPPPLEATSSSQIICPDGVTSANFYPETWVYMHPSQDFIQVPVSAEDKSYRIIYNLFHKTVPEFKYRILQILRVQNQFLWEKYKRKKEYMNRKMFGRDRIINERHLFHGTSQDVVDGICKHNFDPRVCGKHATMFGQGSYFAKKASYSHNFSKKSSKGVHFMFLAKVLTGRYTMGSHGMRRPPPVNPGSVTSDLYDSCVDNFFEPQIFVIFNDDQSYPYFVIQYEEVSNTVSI
As to the kind of experiment: PARP7 TR-FRET assay (binding, displacement of biotinylated Probe A). The settings on record: 6 nM PARP7, 2 nM Probe A, 25° C., 30 min. A digest of the protocol:
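His-tagged PARP7 at 6 nM was preincubated with compound and 2 nM biotinylated Probe A for 30 min at 25° C (HEPES pH 8.0, NaCl, BSA, DTT, Tween20). Europium-streptavidin/ULight-anti-His FRET was read as the 665/615 nm ratio after a further 30 min. IC50 was fitted from % inhibition normalised to vehicle and blank.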
On the technique in general: TR-FRET usually uses a lanthanide donor and a delayed reading to cut background.
What is called IC50 is the concentration that inhibits the measured activity by half. Read a high IC50 as lower potency. For `C[C@@H]1CN(C(=O)c2cc(Oc3n[nH]c(=O)c(C(F)(F)F)c3N3CC4(C3)CC(F)(F)C4)ccn2)CCN1c1ncc(Cl)cn1` [Compound 319], the IC50 is under 100 nM.
For `O=C(CC1CN(c2cc(C(F)(F)F)c(=O)[nH]n2)c2ccccc2O1)N1CCN(c2ccc(Cl)cn2)CC1` (single isomer, unassigned) [Compound 261] the value was under 100 nM; for `O=C(CC1CN(c2cc(C(F)(F)F)c(=O)[nH]n2)c2cc(Cl)ccc2O1)N1CCN(c2cnc(C(F)(F)F)cn2)CC1` (single isomer, unassigned) [Compound 143], under 100 nM.
For `N#CC1(c2ccnc(N3CCN(C(=O)CC4CN(c5cc(C(F)(F)F)c(=O)[nH]n5)c5cc(F)ccc5O4)CC3)n2)CC1` (single isomer, unassigned) [Compound 344] the value was over 1000 nM; for `N#Cc1ccc(N2CCN(C(=O)c3cccc(Oc4n[nH]c(=O)c(C(F)(F)F)c4N4CC5(C4)CC(F)(F)C5)c3)CC2)nc1` [Compound 333], under 100 nM; for `O=C(CC1CN(c2cc(C(F)(F)F)c(=O)[nH]n2)c2cc(F)ccc2O1)N1CCN(c2ncc(Br)cn2)CC1` (stereo not drawn) [Compound 142], under 100 nM.
In the case of `N#Cc1ccc(N2CCN(C(=O)c3cncc(Oc4n[nH]c(=O)c(C(F)(F)F)c4N4CC5(C4)CC(F)(F)C5)c3)CC2)nc1` [Compound 237] it was under 100 nM; in that of `O=C(CC1CN(c2cc(C(F)(F)F)c(=O)[nH]n2)c2ccccc2O1)N1CCN(c2ccc(Cl)cn2)CC1` (single isomer, unassigned) [Compound 260], 100 to 1000 nM.
Regarding `CNC(=O)c1ccc2c(c1)N(c1cc(C(F)(F)F)c(=O)[nH]n1)CC(CC(=O)N1CCN(c3ncc(C(F)(F)F)cn3)CC1)O2` (single isomer, unassigned) [Compound 323], the IC50 is under 100 nM.
For `C#Cc1cc(N2CCOC(CC(=O)N3CCN(c4ncc(C(F)(F)F)cn4)CC3)C2)n[nH]c1=O` (single isomer, unassigned) [Compound 45] the value was 100 to 1000 nM; for `O=C(COC1CCOc2c1n[nH]c(=O)c2C(F)F)N1CCN(c2ncc(C(F)(F)F)cn2)CC1` (single isomer, unassigned) [Compound 55], under 100 nM; for `C[C@@H]1CN(C(=O)CC2CN(c3cc(C(F)(F)F)c(=O)[nH]n3)c3cc(Cl)ccc3O2)CCN1c1ncc(C#N)cn1` (single isomer, unassigned) [Compound 329], under 100 nM.
In the case of `C[C@@H]1CN(c2n[nH]c(=O)c3cccc(F)c23)C[C@H](CC(=O)N2CCN(c3ncc(C(F)(F)F)cn3)CC2)O1` (stereo in doubt) [Compound 119] it was over 1000 nM; in that of `O=C(CO[C@H]1CCNc2c1n[nH]c(=O)c2C(F)(F)F)N1CCN(c2ncc(C(F)(F)F)cn2)CC1` (single isomer, unassigned) [Compound 3], 100 to 1000 nM; in that of `O=C(CC1CN(c2cc(C(F)(F)F)c(=O)[nH]n2)c2cc(F)ccc2O1)N1CCN(c2ncc(C(F)(F)F)cn2)CC1` (single isomer, unassigned) [Compound 130], under 100 nM.
For `O=C(c1cccc(Oc2n[nH]c(=O)c(C(F)(F)F)c2N2CC3(C2)CC(F)(F)C3)c1)N1CCN(c2ncc(C(F)(F)F)cn2)CC1` [Compound 175] the value was under 100 nM; for `C[C@H]1CN(c2cc(C(F)(F)F)c(=O)[nH]n2)C[C@H](CC(=O)N2CCN(c3ncc(C(F)(F)F)cn3)CC2)O1` (stereo in doubt) [Compound 111], under 100 nM; for `O=C(CC1CN(c2n[nH]c(=O)c3c(Cl)cccc23)CCO1)N1CCN(c2ncc(C(F)(F)F)cn2)CC1` (single isomer, unassigned) [Compound 93], under 100 nM.
The molecule `N#Cc1ccc(N2CCN(C(=O)CC3CN(c4cc(C(F)(F)F)c(=O)[nH]n4)c4ccccc4O3)CC2)nc1` (single isomer, unassigned) [Compound 222] showed an IC50 of 100 to 1000 nM.
For `O=C(CC1CN(c2cc(C(F)(F)F)c(=O)[nH]n2)c2cc(C(F)F)ccc2O1)N1CCN(c2ncc(C(F)(F)F)cn2)CC1` (single isomer, unassigned) [Compound 227] the value was under 100 nM; for `C[C@@H]1CN(C(=O)CC2CN(c3cc(C(F)(F)F)c(=O)[nH]n3)c3cc(F)ccc3O2)CCN1c1ncc(C#N)cn1` (single isomer, unassigned) [Compound 325], under 100 nM; for `O=C(c1cccc(Oc2n[nH]c(=O)c(C(F)(F)F)c2OCC2CCOCC2)c1)N1CCN(c2ncc(C(F)(F)F)cn2)CC1` [Compound 217], under 100 nM.
For `N#Cc1cnc(N2CCN(C(=O)CC3CN(c4cc(C(F)(F)F)c(=O)[nH]n4)c4cc(Cl)ccc4O3)CC2)nc1` (single isomer, unassigned) [Compound 294] the value was 100 to 1000 nM; for `Cn1cc(-c2ccc3c(c2)N(c2cc(C(F)(F)F)c(=O)[nH]n2)CC(CC(=O)N2CCN(c4ncc(C(F)(F)F)cn4)CC2)O3)cn1` (single isomer, unassigned) [Compound 193], under 100 nM.
For `C[C@H]1CN(c2n[nH]c(=O)c3c(F)cccc23)C[C@@H](CC(=O)N2CCN(c3ncc(C(F)(F)F)cn3)CC2)O1` (stereo in doubt) [Compound 95], the IC50 was under 100 nM.
In the case of `O=C(c1cc(Oc2n[nH]c(=O)c(C(F)(F)F)c2N2CC3(C2)CC(F)(F)C3)ccn1)N1CCN(c2ncc(C(F)(F)F)cn2)CC1` [Compound 304], the IC50 is under 100 nM.
For `N#Cc1ccc(N2CCN(C(=O)CC3CN(c4cc(C(F)(F)F)c(=O)[nH]n4)c4cc(C(F)F)ccc4O3)CC2)nc1` (single isomer, unassigned) [Compound 328] the value was under 100 nM; for `C[C@@H]1CN(C(=O)c2cncc(Oc3n[nH]c(=O)c(C(F)(F)F)c3N3CC4(C3)CC(F)(F)C4)c2)CCN1c1cnc(C(F)(F)F)cn1` [Compound 155], under 100 nM.
For `C[C@@H]1CN(C(=O)c2cc(Oc3n[nH]c(=O)c(C(F)(F)F)c3N3CC(O)C3)ccn2)CCN1c1ncc(C(F)(F)F)cn1` [Compound 340] the value was under 100 nM.
In the case of `O=C(CC1CN(c2cc(C(F)(F)F)c(=O)[nH]n2)c2ccc(Cl)cc2O1)N1CCN(c2ncc(C(F)(F)F)cn2)CC1` (single isomer, unassigned) [Compound 163] it was under 100 nM; in that of `O=C(c1cccc(Oc2n[nH]c(=O)c(C(F)(F)F)c2N2CC3(COC3)C2)c1)N1CCN(c2ncc(C(F)(F)F)cn2)CC1` [Compound 165], under 100 nM; in that of `O=C(c1cccc(Oc2n[nH]c(=O)c(C(F)(F)F)c2NCC2CC2)c1)N1CCN(c2ncc(C(F)(F)F)cn2)CC1` [Compound 204], under 100 nM.
The molecule `C#Cc1ccc2c(=O)[nH]nc(N3CCOC(CC(=O)N4CCN(c5ncc(C(F)(F)F)cn5)CC4)C3)c2c1` (single isomer, unassigned) [Compound 194] came in with an IC50 of under 100 nM.
For `Cn1ccc(-c2ccc3c(=O)[nH]nc(N4CCOC(CC(=O)N5CCN(c6ncc(C(F)(F)F)cn6)CC5)C4)c3c2)n1` (single isomer, unassigned) [Compound 259] the value was under 100 nM.
As for `CN1C[C@H](OCC(=O)N2CCN(c3ncc(C(F)(F)F)cn3)CC2)c2n[nH]c(=O)c3cc(F)cc1c23` (single isomer, unassigned) [Compound 13], the IC50 fell in the range of 100 to 1000 nM.
As for `CS(=O)(=O)Cc1ccc2c(c1)N(c1cc(C(F)(F)F)c(=O)[nH]n1)CC(CC(=O)N1CCN(c3ncc(C(F)(F)F)cn3)CC1)O2` (single isomer, unassigned) [Compound 270], the IC50 is under 100 nM.

(Values after patent US20240343727A1, “PYRIDAZINONE OR PYRIDINONE COMPOUNDS, PREPARATION METHODS AND USES THEREOF” (InventisBio Co., Ltd., priority 2021, published 2024).)
